We go through four compounds from patent US20220370416A1, “COMPOUNDS AND METHODS FOR TARGETED DEGRADATION OF KRAS” (Arvinas Operations, Inc., priority 2020, published 2022).

SMILES strings stand for the structures.

Format in all cases: cell-based
Assay [1] addresses T1, KRAS^G12C (Homo sapiens, UniProt P01116, G12C). As to the kind of experiment: KRAS^G12C engagement and degradation by immunoblot in NCI-H2030 cells. Further details: MRTX849-VHL bifunctional compounds engage and degrade endogenous KRAS^G12C in NCI-H2030 cells; endogenous in cells; host or cells: NCI-H2030, NCI-H358, MIA PaCa-2, SW1573, NCI-H23. The note with it: for rescue of LC-2 induced KRAS^G12C degradation by inhibitor: NCI-H2030, 1 μM inhibitor before 2.5 μM LC-2. How it is done:
(§1) NCI-H2030 (CRL-5914), MIA PaCa-2 (CRL-1420), NCI-H23 (CRL-5800), NCI-H358 (CRL-5807), and HCT-116 (CCL-247) cells were obtained from ATCC, expanded immediately, and frozen down. Vials were thawed and used within 20 passages. SW1573 cells were a gift from Arvinas and were handled in the same manner. NCI-H2030, NCI-H23, and NCI-H358 were cultured in RPMI (ATCC30-2001) supplemented with 10% FBS (Biological Industries; cat. no. S1480) and 1% Penicillin-Streptomycin (ThermoFisher; cat. no. 15140122). HCT-116 cells were maintained in high glucose DMEM (ThermoFisher; cat. no. 11965084) supplemented as above. MIA PaCa-2 cells were cultured in high glucose DMEM supplemented with 10% FBS, 2.5% horse serum (ThermoFisher; cat. no. 26050-088; lot 2109875), and 1% Penicillin-Streptomycin. SW1573 cells were maintained in DMEM/F12 Nutrient Mix with GlutaMAX supplement (ThermoFisher; cat. no. 10565018) with 10% FBS and 1% Penicillin-Streptomycin added. DPBS (ThermoFisher; cat. no. 14190250) was used to wash cells and 0.25% Trypsin-EDTA (ThermoFisher; cat. no. […]) was used to detach cells for passaging. […] The VHL ligand was generously provided by Arvinas.
(§2) Between 2.5×10^5 and 6.0×10^5 cells were seeded into 6-well plates (Corning; cat. no. 353046). The next day, media was removed and cells were treated with 2.5 μM LC-2 for 1, 2, 4, 8, 12, or 24 hours. […] For 24-hour time course experiments, cells were treated at the indicated times and concurrently lysed in RIPA buffer supplemented as described previously. For longer time course experiments and time courses in which cells were treated with LC-2 or LC-2 Epimer, cells were concurrently treated with either compound, then lysed by scraping in RIPA buffer at the indicated time points.
(§3) Between 2.5×10^5 and 5.0×10^5 cells were seeded into 6-well plates. The next day cells were pretreated with DMSO, 500 μM or 1 mM VHL ligand, 1 μM epoxomicin, 1 μM […], or 100 nM […] bafilomycin A1 for 1 hour. Media was then removed and cells were treated with DMSO, 2.5 μM LC-2 plus DMSO, 2.5 μM LC-2 Epimer plus DMSO, or co-treated with 2.5 μM LC-2 and the corresponding competitor/inhibitor. H2030 cells were treated for 4 hours and H23 cells were treated for 24 hours, after which cells were lysed by scraping in RIPA buffer supplemented as described previously.
(§4) Cell lysates were clarified at 21000×g for 15 mins at 4° C. Protein levels were quantified using a 50:1 mixture of bicinchoninic acid solution (Millipore Sigma; cat. no. B9643) and 4% (w/v) copper(II) sulfate solution (Millipore Sigma; cat. no. C2284) incubated at 37° C. for 30 mins. Absorbance values at 560 nm were read on an EnVision 2101 Multilabel Reader (PerkinElmer). Proteins were separated using 26 well Criterion TGX precast 4-15% (cat. no. 5671085) or 8-16% (cat. no. 5671105) gradient midi gels. After separation, proteins were transferred to nitrocellulose or PVDF membranes at 76 V for 2 hours at 4° C. Blots were then blocked in 5% milk in tris-buffered saline with Tween-20 (TBST; 20 mM Tris, 150 mM NaCl, 0.02% Tween-20). After blocking, blots were incubated in primary antibody overnight (12-18 hours) at 4° C. or for 2 hours at room temperature with mild agitation at the manufacturer's indicated dilution in either 5% milk or 5% BSA in TBST. Blots were then washed thrice with TBST for 5 mins at room temperature. After washing, blots were incubated with 1:5,000-1:10,000 of donkey anti-rabbit (GE Life Sciences; NA934) or sheep anti-mouse (GE Life Sciences; NA931) secondary antibody diluted in 5% milk for 1 hour at room temperature with mild agitation. Blots were again washed thrice with TBST for 5 mins. Chemiluminescent signal was generated using Amersham ECL Prime Western Blotting Detection Reagant (GE Life Sciences; cat. no. RPN2232) or SuperSignal West Femto Maximum Sensitivity Substrate (ThermoFisher; cat. no. 34095). Images were obtained using a Bio-Rad ChemiDoc Imager.
For orientation: A western blot detects proteins with antibodies after separation by electrophoresis.

Assay [2] has as its target T1, KRAS^G12C. As to the kind of experiment: KRAS^G12C degradation by immunoblot in NCI-H23 cells. The note with it: for KRAS, two-way ANOVA significance vs DMSO: FIG. 9B. Also noted: MRTX849-VHL bifunctional compounds engage and degrade endogenous KRAS^G12C in NCI-H2030 cells; endogenous in cells; host or cells: NCI-H2030, NCI-H358, MIA PaCa-2, SW1573, NCI-H23. How it is done: as §1, §2, §3, §4

The target of assay [3] is T1, KRAS^G12C. Nature of the assay: Engagement and degradation of endogenous KRAS^G12C in NCI-H2030 cells (blot quantitation). Also noted: MRTX849-VHL bifunctional compounds engage and degrade endogenous KRAS^G12C in NCI-H2030 cells; endogenous in cells; host or cells: NCI-H2030. Particulars: dose response (FIG. 2B).

As to `C=C(F)C(=O)N1CCN(c2nc(OC[C@@H]3CCCN3CCC(=O)NCCOCCOCCC(=O)N[C@H](C(=O)N3C[C@H](O)C[C@H]3C(=O)NCc3ccc(-c4scnc4C)cc3)C(C)(C)C)nc3c2CCN(c2cccc4cccc(Cl)c24)C3)C[C@@H]1CC#N` [LC-1, (2S,4R)-1-((S)-2-(tert-butyl)-16-((S)-2-(((7-(8-chloronaphthalen-1-yl)-4-((S)-3-(cyanomethyl)-4-(2-fluoroacryloyl)piperazin-1-yl)-5,6,7,8-tetrahydropyrido[3,4-d]pyrimidin-2-yl)oxy)methyl)pyrrolidin-1-yl)-4,14-dioxo-7,10-dioxa-3,13-diazahexadecanoyl)-4-hydroxy-N-(4-(4-methylthiazol-5-yl)benzyl)pyrrolidine-2-carboxamide], at KRAS^G12C [1] (10 μM, compound screen (FIG. 2C)), the “effect on KRAS protein levels” value is reported as “increased KRAS protein levels”. Moreover, the “KRAS, two-way ANOVA significance vs DMSO” value on KRAS^G12C [1] (NCI-H2030, 10 μM, FIG. 9A) is “* (* p < 0.05)”; at KRAS^G12C [2] (NCI-H23, 0.1 μM), “N.S”; at KRAS^G12C [2] (NCI-H23, 10 μM) it was “N.S”. The “KRAS engagement (band shift)” value at KRAS^G12C [1] (NCI-H2030, 24 hours, at 1, 2.5, 10, and 25 μM) is on record as “clear band shift”. Besides, the “reduction in KRAS levels” value on KRAS^G12C [1] (NCI-H2030, 24 hours, increasing concentrations) was “small, non-significant reduction”. Besides, the “engagement of KRAS^G12C” value at KRAS^G12C [3] is given as “engages KRAS^G12C in a dose dependent manner”.
For the compound `NS(=O)(=O)OC[C@@H]1C[C@@H](n2ccc3c(N[C@H]4CCc5ccccc54)ncnc32)C[C@@H]1O` [MLN924, reference compound], at KRAS^G12C [1], the “rescue of LC-2 induced KRAS^G12C degradation by inhibitor” value (“rescue … by inhibitor” below) was “rescued KRAS^G12C levels”.
On to `CC[C@H](C)[C@H](NC(=O)[C@H]([C@@H](C)CC)N(C)C(C)=O)C(=O)N[C@H](C(=O)N[C@@H](CC(C)C)C(=O)[C@@]1(C)CO1)[C@@H](C)O` [epoxomicin, reference compound], for which, on KRAS^G12C [1], the “rescue … by inhibitor” value was “rescued KRAS^G12C levels”.
Consider `CO/C1=C\C(C)=C\[C@@H](C)[C@@H](O)[C@@H](C)C/C(C)=C/C=C/[C@H](OC)[C@@H]([C@@H](C)[C@@H](O)[C@H](C)[C@@]2(O)C[C@@H](O)[C@H](C)[C@@H](C(C)C)O2)OC1=O` [BafA1, bafilomycin A1, reference compound], for which, at KRAS^G12C [2] (NCI-H23, pre-treatment before LC-2), the “rescue … by inhibitor” value is “unable to rescue”.
